Data published in US6469013B2, “Therapeutic compounds” (Parker Hughes Institute, priority 1998, dated 2002).

System: skh-1 mice
Test: Chronic UVB-induced skin tumorigenesis
Assay type: in vivo, mouse
Description: Female, 6-7 weeks old, hairless albino mice (skh-1) were purchased from Charles River Laboratories (Wilmington, Mass.) and were housed in a controlled environment (12-h light/12-h dark photo period, 22±1° C., 60±10% relative humidity), which is fully accredited by the USDA (United States Department of Agriculture). Animals were caged in groups of five in a pathogen free environment in accordance with the rules and regulations of U.S. Animal Welfare Act, and National Institutes of Health (NIH). All mice were housed in microisolator cages (Lab Products, Inc., N.J.) containing autoclaved bedding. The mice were allowed free access to autoclaved pellet food and tap water throughout the experiments. Animal care and the experimental procedures were carried out in agreement with institutional guidelines.
Ultraviolet lamps (8-FSX24T12/HO/UVB) that emit light predominantly in the UVB range (280-320 nm) were obtained from National Biological Corporation, Twinsburg, Ohio. The irradiance of the UVB lamps was determined before each irradiation, using a UVB meter (model—500C obtained from National Biological Corporation, Twinsburg, Ohio). For exposure to UV light, three mice were placed in an open 28 cm×10 cm plastic box that was divided in three compartments (one mouse per compartment). The plastic box was placed in the center, under the bank of UVB light, and the mice were irradiated with 35 mj/cm^2 dose of UVB. The exposure time for a 35 mj/cm ^2 dose of UVB varied from 30-34 s. The distance between UVB lamps and the surface receiving irradiation was 20 cm.
The mice were treated topically with a single application of Compound 6 (1.0 mg/cm^2, dissolved in DMSO) over a 2 cm^2 area on the dorsal surface before each UVB exposure. After 15 min. following Compound 6 application the mice were irradiated with UVB (35 mj/cm). UVB exposure of mice was performed three times a week for a total of 20 weeks. Control mice were treated with vehicle prior to UVB light exposure.
The skin thickness of mice, and papillary skin lesions greater than 1 mm in diameter were measured and recorded twice every week and the average of the two measurements was used in the calculations. Skin thickness, lesion number and lesion diameter measurements were limited only to the 2 cm^2 area on the dorsal surface of mice that was being treated either with compound 6 or vehicle. Lesion volume were calculated using the formula: […]
At the end of the study, 5-19 lesions from each group were randomly biopsied, and fixed in 10% buffered formalin. Formalin-fixed specimens were embedded in paraffin blocks, sectioned at 4 μm thickness, and stained in haematoxylin-eosin. The pathological evaluation of skin sections was performed by a Certified Veterinary Pathologist who was unaware of the identity of specimens.
The pathological classification of tumors was as follows: 1) Cutaneous papilloma: a tumor papillomatous growth of acanthotic epidermis without invasive growth of tumor cells into the dermis. […] 2) Actinic keratosis: a hyperplastic, orthokeratotic, mildly to moderately acanthotic epithelium. 3) Florid actinic keratosis: actinic keratosis with mild to moderately acanthotic ridges extending into the superficial dermis, resembling superficially invasive squamous cell carcinoma. 4) Keratoacanthoma: a papillary growth with a central keratin filled crater surrounded by hyperplastic, acanthotic stratified squamous epithelium. The leading edge of the tumor pushes into the underlying dermis. 5) Squamous cell carcinoma (SCC): a tumor with atypical cell nests invading into superficial and mid dermis.

[1] = group C, 1 mg/cm^2 topical, 20 weeks
[2] = group C, 1 mg/cm^2 topical, 20 weeks, mean ± SEM

COc1cc2ncnc(Nc3ccc(O)cc3)c2cc1OC [WHI-P131, 4-(4′-hydroxyl-phenyl)-amino-6,7-dimethoxyquinazoline]
inhibition of occurrence of SCC/Florid actinic keratosis (group C vs group B, 20 weeks): about 23%
No. of lesions/mouse (group C, 1 mg/cm^2 topical before each UVB 35 mj/cm^2, 20 weeks, mean ± SEM): 1.6 ± 0.4
Percentage of mice with Actinic keratosis [1]: 53 Percentage
Percentage of mice with Keratoacanthomas [1]: 0 Percentage
Percentage of mice with Papilloma [1]: 7 Percentage
Percentage of mice with SCC/Florid actinic keratosis [1]: 57 Percentage
Avg. Vol/lesion [2]: 1.9 ± 0.5
Skin lesion volume/mouse [2]: 3.2 ± 0.9
onset of lesions (first lesion observed after) (weeks of UVB-irradiation, vehicle group around 10 weeks): 14 weeks
